Values after ≈ are worked out from the molar mass of the structure shown. Bounds are passed on as bounds.

The subject of one series is KB epidermal carcinoma. Briefly: MTT cytotoxicity assay, KB. The format is cell-based, human. Particulars: Homo sapiens, KB cell line, 72 h, mean ± s.d., three replicates. Here is the method: (§1) The cytotoxic activities against the cancer cell lines KB epidermal carcinoma, A549 lung cancer, HepG2 liver cancer and MCF-7 breast cancer, as well as the healthy cell line HEK293 embryonic kidney cells, were determined using the 3-(4,5-dimethylthiazol-2-yl)-2,5-diphenyltetrazolium bromide (MTT) assay. Briefly, cell lines were grown into log phase at 37°C, 5% CO2 in DMEM-Dulbecco's modified Eagle's medium and 10% fetal bovine serum. A concentration of 1 × 10^4–3 × 10^4 cells ml^−1 was prepared depending on the cell line used for the experiment by adding 10 µl of the sample and 190 µl of the cell suspension, followed by incubation under standard conditions. After 72 h of culture, 10 µl of MTT (5 mg ml^−1) was added and incubated for 4 h. Dimethyl sulfoxide (100 µl) was added to dissolve formazan crystals and the density was measured at 540 nm using a BioTek spectrophotometer. The inhibition of cell growth was expressed as IC50 (the half-maximal inhibitory concentration) value.
On the technique in general: Tetrazolium assays rely on reduction of a dye to a coloured formazan, in cell work by metabolically active cells.

A further series has as its system MCF-7 breast cancer. Briefly: MTT cytotoxicity assay, MCF-7. The format is cell-based, human. Particulars: Homo sapiens, MCF7, MCF-7 cell line, 72 h, mean ± s.d., three replicates. On the procedure:
as §1

In series [1] the test system is HEK293 embryonic kidney cells. Briefly: MTT cytotoxicity assay, HEK293. The format is cell-based, human. Particulars: Homo sapiens, HEK293 healthy cell line, 72 h, mean ± s.d., three replicates. On the procedure:
as §1, with “value. Ellipticine was used as reference.” for “value.”

In a further series the test system is Staphylococcus aureus. Briefly: Anti-microbial activity assay, S. aureus. The format is cell-based. The note with it: S. aureus. Here is the method:
(§2) Bacterial and fungal strains (Bacillus subtilis, Staphylococcus aureus, Lactobacillus fermentum, Escherichia coli, Pseudomonas aeruginosa, Salmonella enterica and Candida albicans) were activated on TSA (Tryptic Soy Agar) and SA (Sabouraud–4% dextrose agar) media, respectively. Before the experiment, the microbial strains were grown in the corresponding liquid media at a concentration of approximately 5 × 10^5 CFU ml^−1 for bacteria and 1 × 10^3 CFU ml^−1 for fungi. The microbial suspension (190 µl) was mixed with 10 µl of the test sample, which was serially diluted twofold, and the microplate was incubated at 37°C for 16–24 h.

The test system of another series is Bacillus subtilis. Briefly: Anti-microbial activity assay, B. subtilis. The format is cell-based. The note with it: B. subtilis. Here is the method: as §2
Series [2] concerns hepatocellular carcinoma cell lines (Huh-7, SK-Hep-1, HA22T/VGH cell lines). The note with it: cited from earlier work.

Broadly, the IC50 is the concentration that inhibits the measured activity by half. As a reminder, the MIC is the lowest concentration that inhibits growth of the organism. With `COc1cc2oc3cc(O)c(OC)c(CC=C(C)C)c3c(=O)c2c(O)c1CC=C(C)C` [β-mangostin], the half-inhibitory concentration (IC50) was 21.1 ± 9.9 µM in the series with KB epidermal carcinoma; 18 ± 8.1 µM in the series on MCF-7 breast cancer; 15.6 ± 6.5 µM in series [1]; 1.24 ± 0.05 µg/mL (≈ 2.92 µM) in the series with Staphylococcus aureus (read-out: IC50); 0.16 ± 0.01 µg/mL (≈ 0.377 µM) in the series with Bacillus subtilis (read-out: IC50). Moreover, the results for the minimal inhibitory concentration (MIC) in the series on Staphylococcus aureus (read-out: MIC) and in the series with Bacillus subtilis (read-out: MIC) were over 32 µg/mL and 0.5 µg/mL (≈ 1.18 µM), respectively. Besides, in series [2], the “cytotoxicity or cell cycle suppression” value is recorded as “did not cause cytotoxicity or cell cycle suppression”.

The values are drawn from publication PMC10427817, “Bioactivities of β-mangostin and its new glycoside derivatives synthesized by enzymatic reactions” (Royal Society Open Science, 2023).
